The record followed here is patent US20240325363A1, “COMPOSITION FOR TREATMENT OF ANTICANCER AGENT-RESISTANT CANCER” (ONCOCROSS CO.,LTD., priority 2021, published 2024).

The subject of assay [1] is HCT116 cells. The assay is described as follows: Cell cycle analysis by PI staining and flow cytometry. It is filed as cell-based, human. As to conditions: 24 hours, PI staining flow cytometry. The protocol: (§1) To determine whether the inhibition of KRAS by GW8510 was regulated through Cdk2 inhibition, HCT116 cells were treated with other CDK inhibitors, such as PKC inhibitor H7, Cdk2 inhibitor CVT-313, and Cdk4/6 inhibitor PD0332991, other than GW8510 (Cdk2 inhibitor) for 24 hours, respectively, and then to analyze the cell cycle, the cells were subjected to PI staining and confirmed by flow cytometry, and the KRAS expression levels were confirmed by Endpoint PCR and qRT-PCR.

Assay [2] relates to KRAS. The assay is described as follows: KRAS mRNA expression by Endpoint PCR / qRT-PCR in cancer cell lines. In kind it is cell-based, human. The conditions noted are these: for KRAS expression: HCT116 cells, comparison with other CDK inhibitors. The protocol: (§2) In order to confirm the effect of inhibiting KRAS expression by GW8510, a human colon cancer cell line HCT116 with a KRAS G13D mutation, a human prostate cancer cell line PC-3 with a KRAS G13D mutation, a human breast cancer cell line MCF7 as a KRAS wild-type cell line, a human pancreatic cancer cell line MIA PaCa-2 with a KRAS G12C mutation, and a human pancreatic cancer cell line PANC-1 with a KRAS G12D mutation were dispensed in a 6-well plate, and treated with GW8510 at 0, 1, 5 or 10 μM of concentration for 3, 6, 24 or 48 hours. Thereafter, RNA was extracted from the cells using a TRIzol™ Reagent (Thermo Fisher Scientific Inc., USA) and then cDNA was synthesized using M-MLV reverse-transcriptase (ELPIS Biotech, Korea), 2.5 mM dNTP (TransGen Biotech, China), and oligo dT15 (bioneer, Korea). Endpoint PCR was performed using an Endpoint PCR solution mixed with the synthesized cDNA, Taq polymerase master mix, and primers shown in Table 1 below, and a QuantStudio 3 Real-Time PCR Instrument (Thermo Fisher Scientific Inc., USA). Thereafter, the mRNA level of KRAS was confirmed by loading the Endpoint PCR solution on an agarose gel. In addition, the mRNA levels of nuclear transcription factor Y (NYFA) and X-linked inhibitor of apoptosis protein (XIAP) as a protein of inhibiting apoptosis, were also confirmed together with KRAS.
(§3) A colon cancer cell line HCT116 (KRAS G13D mut), pancreatic cancer cell lines PANC-1 (KRAS G12D mut) and MIA PaCa-2 (KRAS G12C mut), and a breast cancer cell line MCF7 (KRAS wt) were dispensed in a 6-well plate, and treated with GW8510 at 0, 1, 5 or 10 μM of concentration for 24 hours, and then Endpoint PCR was performed. In addition, a qRT-PCR solution was prepared by mixing SYBR Green Master Mix, the cDNA of Example 2-1, and the primers in Table 1, and qRT-PCR was performed with QuantStudio 3 Real-Time PCR Instrument (Thermo Fisher Scientific Inc., USA) to quantify the gene expression levels. In addition, the phenotypes of the cancer cell line were observed by treatment of GW8510 by using the colon cancer cell line HCT116 treated with GW8510 at 0 or 10 μM of concentration for 24 hours, and the protein expression levels of pan ras, K-ras, and β-actin were measured by immunoblot. Specifically, the colon cancer cell line HCT116 treated with GW8510 at 0 or 10 μM of concentration for 24 hours was lysed with an RIPA buffer (Curebio, Korea), and then the cell lysate was centrifuged and the supernatant was taken. The cell lysate supernatant was added with a 5×SDS sample buffer and then boiled for 10 minutes, and electrophoresis was performed using a 12% SDS polyacrylamide gel. After electrophoresis, a protein was transferred to a PVDF membrane and then blocked with 5% skim milk (TBS-T) at room temperature for 1 hour. Thereafter, primary antibodies (anti-pan ras, anti-K-ras, and anti-β-actin) diluted in a blocking solution at 1:1000 were added and incubated at 4° C. overnight, and then a membrane was washed three times with 0.05% TBS-T, and a secondary antibody (horseradish peroxidase-conjugated 2nd Ab) diluted at 1:10000 was added and incubated for 1 hour at room temperature. The membrane was washed three times with 0.05% TBS-T, developed with an enhanced chemiluminescence (ECL) solution, and exposed to an X-ray film.
as §1

For assay [3], the system named is HCT116 cells xenograft. As to the kind of experiment: HCT116 xenograft model in nude mice, tumor size. In kind it is in vivo, Balb/c nude mice. The conditions noted are these: GW8510 10 mg/kg i.p. three times a week, cetuximab 1 mg/mouse i.p. once a week. The protocol: Experimental animals used were 36 6-week-old Balb/c nude mice. The experimental diet and drinking water were taken freely, and all experimental diets were stored in a refrigerator during a breeding period. The mice were pre-bred with regular feed to be adapted to a breeding environment for 7 days before the start of the experiment and then divided into a total of 4 groups. […] In all mice, HCT116 cells were injected with 1×10^6 S.C. at 7 weeks of age to prepare a xenograft model. […] The tumor size was measured using Equation of (long axis×short axis×short axis)/2 and measured three times a week at the same time.

The subject of assay [4] is NFYA. As to the kind of experiment: NFYA mRNA expression by Endpoint PCR in cancer cell lines. In kind it is cell-based, human. The protocol:
as §2

Assay [5] has as its system XIAP. The assay is described as follows: XIAP mRNA expression by Endpoint PCR in cancer cell lines. In kind it is cell-based, human. Here is the method:
as §2

Assay [6] relates to KRAS. The assay is described as follows: KRAS protein expression by immunoblot. As to conditions: HCT116, GW8510 0 or 10 μM, 24 hours. It is filed as cell-based, human. The protocol: as §3, with “After electrophoresis, a protein was transferred to a PVDF membrane and then blocked with 5% skim milk (TBS-T) at room temperature for 1 hour. Thereafter, primary antibodies (anti-pan ras, anti-K-ras, and anti-β-actin) diluted in a blocking solution at 1:1000 were added and incubated at 4° C. overnight, and then a membrane was washed three times with 0.05% TBS-T, and a secondary antibody (horseradish peroxidase-conjugated 2nd Ab) diluted at 1:10000 was added and incubated for 1 hour at room temperature. The membrane was washed three times with 0.05% TBS-T, developed with an enhanced chemiluminescence (ECL) solution, and exposed to an X-ray film.” left out

[7] abbreviates: 24 hours, Endpoint PCR and qRT-PCR.
Setting [8] is: all of the cell lines (HCT116, PC-3, MCF7, MIA PaCa-2, PANC-1).

On to `COc1ccc(CNc2nc(N(CCO)CCO)nc3c2ncn3C(C)C)cc1` [CVT-313, reference compound], for which the cell cycle result in assay [1] was “arrested in the GO/G1 phase”. For the same molecule, the KRAS expression result in assay [2] (setting [7]) is on record as “no change in KRAS expression”.

In the case of `O=C1Nc2ccc3ncsc3c2/C1=C/Nc1ccc(S(=O)(=O)Nc2ccccn2)cc1` [GW8510], in assay [3], the tumor size entry is “tended to decrease compared to the control group”. The “mRNA expression level of NFYA” value in assay [4] (HCT116 cells (KRAS G13D)) is recorded as “also decreased”. Further, the “mRNA level of NFYA” value in assay [4] (setting [8]) is given as “also decreased”. In addition, the “mRNA expression level of XIAP” value in assay [5] (HCT116 cells (KRAS G13D)) is “also decreased”. Besides, the “mRNA level of XIAP” value in assay [5] (setting [8]) is on record as “also decreased”. The KRAS transcription level entry in assay [2] (HCT116, PANC-1, MIA PaCa-2 and MCF7, GW8510 0, 1, 5 or 10 μM, 24 hours, Endpoint PCR and qRT-PCR) is listed as “significantly reduced”. Further, the KRAS expression result in assay [2] (setting [7]) is given as “inhibited the KRAS expression”. Moreover, the “mRNA expression level of KRAS” value in assay [2] (HCT116 colon cancer cells (KRAS G13D), GW8510 0, 1, 5 or 10 μM, 3, 6, 24 or 48 hours, effect from 6 hours, Endpoint PCR) is “decreased in a concentration-dependent manner”. For the same molecule, the “KRAS mRNA level” value in assay [2] (MCF7 breast cancer cells (KRAS wild-type), Endpoint PCR) is listed as “also reduced”; in assay [2] (MIA PaCa-2 pancreatic cancer cells (KRAS G12C), Endpoint PCR), “decreased”; in assay [2] (PANC-1 pancreatic cancer cells (KRAS G12D), Endpoint PCR), “decreased”; in assay [2] (PC-3 prostate cancer cells (KRAS G13D), Endpoint PCR), “decreased”. In addition, the KRAS protein level result in assay [6] is on record as “also decreased”.

As to `CC1CNCCN1S(=O)(=O)c1cccc2cnccc12` (stereo not shown) [H7, reference compound], the cell cycle entry in assay [1] is reported as “arrested in the GO/G1 phase”. In addition, in assay [2] (setting [7]), the KRAS expression entry is “no change in KRAS expression”.

For the molecule `CC(=O)c1c(C)c2cnc(Nc3ccc(N4CCNCC4)cn3)nc2n(C2CCCC2)c1=O` [PD0332991, reference compound], in assay [1], the cell cycle entry was “arrested in the GO/G1 phase”. Also, the KRAS expression entry in assay [2] (setting [7]) was “no change in KRAS expression”.
